Values of other authors as cited in patent US8097602B1, “Method of treating body insect infestation” (Host Pharmaceuticals, LLC, priority 2008, dated 2012).

Conditions: at 20° C.

Substance | Surface Tension (dynes/cm)
n-alkanes | 37.8^1 dynes/cm
n-fluoroalkanes | 25.9^1 dynes/cm
